Data: ChEMBL document CHEMBL5653631, “A Potent and Selective ULK1 Inhibitor Suppresses Autophagy and Sensitizes Cancer Cells to Nutrient Stress” (iScience, 2018)
Blank lines part the entries; values can stand above or below the compound they belong to.

Columns and labels:
[1] = target: T1, TGF-beta receptor type-1 (Homo sapiens) (UniProt P36897); assay: Inhibition of human recombinant TGFbR1 at 500 nM in presence of ATP by radiometric assay relative to control
T1 sequence (whole entry): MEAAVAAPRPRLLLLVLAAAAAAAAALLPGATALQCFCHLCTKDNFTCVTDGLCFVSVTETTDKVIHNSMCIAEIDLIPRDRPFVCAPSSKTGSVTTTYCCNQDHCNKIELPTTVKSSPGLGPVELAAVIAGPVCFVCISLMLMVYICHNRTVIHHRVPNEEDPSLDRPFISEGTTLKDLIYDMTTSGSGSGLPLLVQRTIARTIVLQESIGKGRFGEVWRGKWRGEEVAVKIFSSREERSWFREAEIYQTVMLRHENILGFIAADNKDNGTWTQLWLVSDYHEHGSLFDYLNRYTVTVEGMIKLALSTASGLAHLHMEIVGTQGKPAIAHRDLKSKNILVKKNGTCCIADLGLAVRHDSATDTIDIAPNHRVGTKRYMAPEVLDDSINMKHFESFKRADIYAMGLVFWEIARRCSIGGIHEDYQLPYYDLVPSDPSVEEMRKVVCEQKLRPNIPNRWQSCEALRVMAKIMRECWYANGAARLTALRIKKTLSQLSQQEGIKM

[2] = target: Tyrosine-protein kinase CSK (Homo sapiens) (UniProt P41240); assay: Inhibition of human recombinant CSK at 500 nM in presence of ATP by radiometric assay relative to control
Tyrosine-protein kinase CSK (Homo sapiens), sequence (P41240 2-450 limits assumed): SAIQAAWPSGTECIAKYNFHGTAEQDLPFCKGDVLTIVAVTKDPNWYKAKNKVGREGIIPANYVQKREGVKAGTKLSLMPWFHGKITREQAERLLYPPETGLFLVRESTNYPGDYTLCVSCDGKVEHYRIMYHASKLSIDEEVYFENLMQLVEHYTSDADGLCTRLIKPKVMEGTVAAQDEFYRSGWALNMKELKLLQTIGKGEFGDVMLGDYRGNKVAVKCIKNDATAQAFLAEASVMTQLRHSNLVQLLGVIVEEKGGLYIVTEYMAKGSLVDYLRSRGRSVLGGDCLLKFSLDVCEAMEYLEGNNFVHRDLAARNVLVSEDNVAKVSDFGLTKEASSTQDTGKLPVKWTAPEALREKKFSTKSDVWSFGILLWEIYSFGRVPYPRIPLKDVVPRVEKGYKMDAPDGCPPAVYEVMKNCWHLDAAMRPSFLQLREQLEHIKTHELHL

[3] = target: Receptor-interacting serine/threonine-protein kinase 2 (Homo sapiens) (UniProt O43353); assay: Inhibition of human recombinant RIPK2 at 500 nM in presence of ATP by radiometric assay relative to control
Receptor-interacting serine/threonine-protein kinase 2 (Homo sapiens), sequence (O43353 whole entry): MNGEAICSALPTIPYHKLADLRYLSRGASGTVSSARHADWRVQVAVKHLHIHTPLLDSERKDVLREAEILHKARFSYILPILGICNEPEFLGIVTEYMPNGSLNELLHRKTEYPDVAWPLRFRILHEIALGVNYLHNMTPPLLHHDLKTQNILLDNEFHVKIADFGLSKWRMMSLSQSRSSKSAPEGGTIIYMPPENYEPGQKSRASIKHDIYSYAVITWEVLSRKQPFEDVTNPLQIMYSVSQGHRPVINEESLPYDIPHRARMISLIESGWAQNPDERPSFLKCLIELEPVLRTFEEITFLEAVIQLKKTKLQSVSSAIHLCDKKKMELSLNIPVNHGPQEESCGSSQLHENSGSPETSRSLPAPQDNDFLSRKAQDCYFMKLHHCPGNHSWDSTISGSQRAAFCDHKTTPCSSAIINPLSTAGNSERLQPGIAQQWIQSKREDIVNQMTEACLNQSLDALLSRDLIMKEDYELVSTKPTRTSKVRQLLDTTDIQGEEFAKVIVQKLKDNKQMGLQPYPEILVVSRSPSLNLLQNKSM

[4] = target: Tyrosine-protein kinase Tec (Homo sapiens) (UniProt P42680); assay: Inhibition of human recombinant TEC at 500 nM related to control ULK1
Tyrosine-protein kinase Tec (Homo sapiens), sequence (P42680 whole entry, looked up): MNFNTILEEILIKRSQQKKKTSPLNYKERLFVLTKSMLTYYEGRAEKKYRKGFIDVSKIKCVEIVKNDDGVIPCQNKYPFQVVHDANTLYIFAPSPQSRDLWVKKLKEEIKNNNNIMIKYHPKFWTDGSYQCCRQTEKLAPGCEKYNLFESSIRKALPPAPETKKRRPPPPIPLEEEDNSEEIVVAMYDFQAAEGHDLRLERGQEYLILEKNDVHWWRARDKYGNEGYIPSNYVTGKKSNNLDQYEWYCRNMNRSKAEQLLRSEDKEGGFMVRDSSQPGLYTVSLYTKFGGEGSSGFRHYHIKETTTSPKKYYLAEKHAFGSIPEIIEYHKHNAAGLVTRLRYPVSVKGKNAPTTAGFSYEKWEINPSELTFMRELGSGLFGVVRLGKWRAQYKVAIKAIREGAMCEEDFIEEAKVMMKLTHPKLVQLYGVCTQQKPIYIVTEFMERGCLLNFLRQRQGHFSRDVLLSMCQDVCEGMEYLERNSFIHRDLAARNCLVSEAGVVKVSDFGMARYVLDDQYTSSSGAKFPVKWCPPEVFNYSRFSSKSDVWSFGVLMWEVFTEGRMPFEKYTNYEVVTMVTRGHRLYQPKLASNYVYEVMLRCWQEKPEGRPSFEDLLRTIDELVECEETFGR

[5] = target: Mitogen-activated protein kinase kinase kinase kinase 4 (Homo sapiens) (UniProt O95819); assay: Inhibition of human recombinant HGK at 500 nM related to control ULK1
Mitogen-activated protein kinase kinase kinase kinase 4 (Homo sapiens), sequence (O95819 2-1239 limits assumed): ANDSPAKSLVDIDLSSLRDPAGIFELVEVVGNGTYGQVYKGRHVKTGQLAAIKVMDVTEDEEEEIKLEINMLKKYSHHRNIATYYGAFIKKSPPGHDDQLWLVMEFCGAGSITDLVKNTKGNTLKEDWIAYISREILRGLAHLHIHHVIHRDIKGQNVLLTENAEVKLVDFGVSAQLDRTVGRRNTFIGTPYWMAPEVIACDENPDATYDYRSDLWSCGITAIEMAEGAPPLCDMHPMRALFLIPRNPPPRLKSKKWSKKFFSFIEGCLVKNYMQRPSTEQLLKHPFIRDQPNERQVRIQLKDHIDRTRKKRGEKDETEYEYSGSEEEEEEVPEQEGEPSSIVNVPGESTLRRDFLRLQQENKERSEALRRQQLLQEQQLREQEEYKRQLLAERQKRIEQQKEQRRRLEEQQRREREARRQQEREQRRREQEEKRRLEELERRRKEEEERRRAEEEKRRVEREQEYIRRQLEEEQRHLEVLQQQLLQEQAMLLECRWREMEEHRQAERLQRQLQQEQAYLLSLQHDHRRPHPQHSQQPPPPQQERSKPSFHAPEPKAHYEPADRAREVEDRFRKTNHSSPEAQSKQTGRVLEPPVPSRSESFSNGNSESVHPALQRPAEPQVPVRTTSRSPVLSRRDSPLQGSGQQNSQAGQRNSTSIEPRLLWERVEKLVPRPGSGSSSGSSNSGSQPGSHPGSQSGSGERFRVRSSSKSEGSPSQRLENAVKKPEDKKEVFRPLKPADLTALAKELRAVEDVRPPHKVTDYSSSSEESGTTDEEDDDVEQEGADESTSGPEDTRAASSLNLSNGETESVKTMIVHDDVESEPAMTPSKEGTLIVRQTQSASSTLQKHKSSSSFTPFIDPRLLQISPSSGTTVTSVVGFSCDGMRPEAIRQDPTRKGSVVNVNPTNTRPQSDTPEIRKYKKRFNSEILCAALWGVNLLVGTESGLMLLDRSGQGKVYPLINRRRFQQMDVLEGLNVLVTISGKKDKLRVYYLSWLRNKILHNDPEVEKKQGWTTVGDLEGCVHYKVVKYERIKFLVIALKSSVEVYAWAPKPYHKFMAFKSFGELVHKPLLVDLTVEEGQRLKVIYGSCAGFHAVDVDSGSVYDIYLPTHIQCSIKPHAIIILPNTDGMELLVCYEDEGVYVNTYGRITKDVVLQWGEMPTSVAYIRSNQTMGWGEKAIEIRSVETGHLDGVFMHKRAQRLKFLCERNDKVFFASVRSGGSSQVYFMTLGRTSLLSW

[6] = target: Tyrosine-protein kinase Fes/Fps (Homo sapiens) (UniProt P07332); assay: Inhibition of human recombinant FES at 15 nM related to control ULK1
Tyrosine-protein kinase Fes/Fps (Homo sapiens), sequence (P07332 whole entry): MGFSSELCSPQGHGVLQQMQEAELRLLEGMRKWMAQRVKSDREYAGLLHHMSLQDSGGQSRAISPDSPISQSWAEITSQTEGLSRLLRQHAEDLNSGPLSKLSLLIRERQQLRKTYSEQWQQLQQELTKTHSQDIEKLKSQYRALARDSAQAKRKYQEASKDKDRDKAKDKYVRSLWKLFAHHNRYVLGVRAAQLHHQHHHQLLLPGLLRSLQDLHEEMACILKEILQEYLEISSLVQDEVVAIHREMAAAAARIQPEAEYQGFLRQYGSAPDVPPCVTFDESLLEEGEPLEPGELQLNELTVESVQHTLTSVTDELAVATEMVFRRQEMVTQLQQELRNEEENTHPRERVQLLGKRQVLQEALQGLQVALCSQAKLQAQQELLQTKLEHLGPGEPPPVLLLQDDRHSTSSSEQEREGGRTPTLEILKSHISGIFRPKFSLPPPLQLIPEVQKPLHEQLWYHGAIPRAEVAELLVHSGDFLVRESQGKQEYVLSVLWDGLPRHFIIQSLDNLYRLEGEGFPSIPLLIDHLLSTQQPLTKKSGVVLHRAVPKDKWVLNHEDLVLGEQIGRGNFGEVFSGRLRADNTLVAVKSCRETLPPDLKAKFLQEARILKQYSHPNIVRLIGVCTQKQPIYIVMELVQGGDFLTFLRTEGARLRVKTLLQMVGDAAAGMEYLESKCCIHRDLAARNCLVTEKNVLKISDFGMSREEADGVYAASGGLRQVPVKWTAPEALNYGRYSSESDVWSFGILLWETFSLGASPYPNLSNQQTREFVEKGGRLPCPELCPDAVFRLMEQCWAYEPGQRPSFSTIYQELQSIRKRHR

[7] = target: T2, Ephrin type-A receptor 3 (Homo sapiens) (UniProt P29320); assay: Inhibition of human recombinant EphA3 at 15 nM related to control ULK1
T2 sequence (whole entry): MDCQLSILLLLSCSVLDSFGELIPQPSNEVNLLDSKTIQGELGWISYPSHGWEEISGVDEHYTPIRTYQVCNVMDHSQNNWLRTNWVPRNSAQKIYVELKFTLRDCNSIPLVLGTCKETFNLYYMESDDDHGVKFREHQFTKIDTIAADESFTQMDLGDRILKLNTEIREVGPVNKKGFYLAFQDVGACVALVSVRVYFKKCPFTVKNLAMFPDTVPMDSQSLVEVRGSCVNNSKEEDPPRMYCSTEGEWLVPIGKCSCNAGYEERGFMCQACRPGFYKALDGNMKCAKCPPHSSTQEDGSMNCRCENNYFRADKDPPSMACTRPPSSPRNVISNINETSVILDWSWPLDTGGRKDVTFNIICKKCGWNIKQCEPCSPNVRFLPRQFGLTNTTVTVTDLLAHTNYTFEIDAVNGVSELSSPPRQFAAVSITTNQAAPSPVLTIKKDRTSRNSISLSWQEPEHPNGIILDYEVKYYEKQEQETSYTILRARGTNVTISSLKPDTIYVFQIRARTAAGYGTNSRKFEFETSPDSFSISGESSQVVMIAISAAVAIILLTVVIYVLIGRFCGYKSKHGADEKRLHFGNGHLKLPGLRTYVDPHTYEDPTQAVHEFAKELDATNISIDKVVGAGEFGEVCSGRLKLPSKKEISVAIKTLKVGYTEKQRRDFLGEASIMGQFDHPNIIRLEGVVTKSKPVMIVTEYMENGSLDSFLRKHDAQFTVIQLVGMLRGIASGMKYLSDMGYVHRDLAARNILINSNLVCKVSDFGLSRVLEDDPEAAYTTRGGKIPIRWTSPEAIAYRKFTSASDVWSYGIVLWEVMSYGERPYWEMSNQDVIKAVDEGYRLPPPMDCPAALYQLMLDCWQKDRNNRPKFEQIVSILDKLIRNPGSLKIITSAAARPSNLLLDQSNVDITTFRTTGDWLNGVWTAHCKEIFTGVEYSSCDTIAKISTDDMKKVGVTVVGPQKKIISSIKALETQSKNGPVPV

[8] = target: Tyrosine-protein kinase HCK (Homo sapiens) (UniProt P08631); assay: Inhibition of human recombinant HCK at 40 nM in presence of ATP by radiometric assay relative to control
Tyrosine-protein kinase HCK (Homo sapiens), sequence (P08631 2-526 limits assumed): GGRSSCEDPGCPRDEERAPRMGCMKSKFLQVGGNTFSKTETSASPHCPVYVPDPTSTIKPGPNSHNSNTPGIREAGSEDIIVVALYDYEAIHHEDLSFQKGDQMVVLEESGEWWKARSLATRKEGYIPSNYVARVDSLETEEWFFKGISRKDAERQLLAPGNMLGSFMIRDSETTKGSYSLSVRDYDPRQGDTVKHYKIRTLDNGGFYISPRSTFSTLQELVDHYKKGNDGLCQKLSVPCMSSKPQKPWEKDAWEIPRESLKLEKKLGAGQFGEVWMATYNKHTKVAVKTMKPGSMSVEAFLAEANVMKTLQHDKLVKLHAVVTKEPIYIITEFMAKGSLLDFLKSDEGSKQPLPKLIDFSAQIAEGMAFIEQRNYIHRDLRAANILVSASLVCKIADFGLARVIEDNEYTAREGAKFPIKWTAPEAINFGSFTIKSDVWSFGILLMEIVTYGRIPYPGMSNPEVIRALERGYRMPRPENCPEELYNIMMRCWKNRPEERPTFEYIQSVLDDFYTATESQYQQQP

[9] = target: T3, cGMP-dependent protein kinase 1 (Homo sapiens) (UniProt Q13976); assay: Inhibition of human recombinant PKG1 at 40 nM in presence of ATP by radiometric assay relative to control
T3 sequence (whole entry): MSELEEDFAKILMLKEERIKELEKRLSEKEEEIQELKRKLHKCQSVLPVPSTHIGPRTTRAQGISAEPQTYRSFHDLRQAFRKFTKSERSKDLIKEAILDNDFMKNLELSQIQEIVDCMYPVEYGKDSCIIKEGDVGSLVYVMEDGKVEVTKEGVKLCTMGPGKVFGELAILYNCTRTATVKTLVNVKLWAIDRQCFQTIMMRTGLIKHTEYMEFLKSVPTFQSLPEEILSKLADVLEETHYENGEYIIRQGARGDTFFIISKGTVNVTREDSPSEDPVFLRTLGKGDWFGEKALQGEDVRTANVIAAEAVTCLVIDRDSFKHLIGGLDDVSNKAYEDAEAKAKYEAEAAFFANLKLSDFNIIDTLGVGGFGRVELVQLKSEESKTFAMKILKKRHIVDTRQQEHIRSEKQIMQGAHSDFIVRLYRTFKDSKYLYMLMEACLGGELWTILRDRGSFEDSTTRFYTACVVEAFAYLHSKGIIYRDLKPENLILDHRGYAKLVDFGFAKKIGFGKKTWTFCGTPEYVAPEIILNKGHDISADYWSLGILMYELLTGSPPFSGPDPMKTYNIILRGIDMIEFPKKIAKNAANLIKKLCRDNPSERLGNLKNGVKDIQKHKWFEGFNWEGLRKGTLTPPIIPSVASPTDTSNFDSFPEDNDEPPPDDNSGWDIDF

inhibition [1]: 0% | inhibition [2]: 2% | inhibition [3]: 0% | fold change (FC) [4]: 0.03 | fold change (FC) [5]: 0
SMILES: CNC(=O)c1ccccc1Oc1nc(Nc2cc(OC)c(OC)c(OC)c2)ncc1Br

fold change (FC) [6]: 0 | fold change (FC) [7]: 0.03
SMILES: CC(C)[C@H](NC(=O)c1cc(-c2cnn3cc(-c4ccc(OCCN5CCCCC5)cc4)cnc23)cs1)C(F)(F)F

inhibition [8]: 0% | inhibition [9]: 6%
SMILES: O=C(N[C@@H](C1CC1)C(F)(F)F)c1cc(-c2cnn3cc(-c4ccc(F)cc4)cnc23)cs1
